Consider four compounds from publication PMC3702509, “Label Free Fragment Screening Using Surface Plasmon Resonance as a Tool for Fragment Finding – Analyzing Parkin, a Difficult CNS Target” (PLoS ONE, 2013).

What is called pKd is the negative decadic logarithm of the Kd, by convention in mol/L.

pKd: −log10 of the molar value.

Experiment [1] concerns the target T1, FL-FLAG-Parkin RT (non-thermal treated) (Homo sapiens, UniProt O60260).
T1 construct: the entire coding region (residues 1–465) from NM_004562.1 was cloned into pFastBac; made in house; host or cells: Sf9 or Sf21 insect cells (baculovirus)
T1 sequence (O60260 1-465): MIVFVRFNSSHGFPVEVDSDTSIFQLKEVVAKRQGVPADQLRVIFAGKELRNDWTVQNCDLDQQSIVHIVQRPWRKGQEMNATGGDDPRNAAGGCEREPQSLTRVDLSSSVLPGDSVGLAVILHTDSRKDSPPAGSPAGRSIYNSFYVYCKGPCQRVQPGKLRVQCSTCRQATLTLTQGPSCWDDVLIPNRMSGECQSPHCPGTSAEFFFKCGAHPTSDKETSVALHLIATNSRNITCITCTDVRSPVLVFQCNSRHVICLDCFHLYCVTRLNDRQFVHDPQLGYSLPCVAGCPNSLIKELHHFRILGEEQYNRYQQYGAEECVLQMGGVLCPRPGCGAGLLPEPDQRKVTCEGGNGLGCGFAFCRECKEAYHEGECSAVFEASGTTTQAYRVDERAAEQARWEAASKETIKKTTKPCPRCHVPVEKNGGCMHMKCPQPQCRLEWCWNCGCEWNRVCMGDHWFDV
Kind of experiment: SPR kinetics/affinity on non-thermal treated FL-FLAG Parkin captured by anti-FLAG antibody. It counts as binding. As to conditions: for direct binding of reducing agent by SPR: non-thermal treated Parkin. As for the experimental part: Kinetics and Affinity measurements were performed on a GE Healthcare Biacore T100 or T200 instrument. Anti-FLAG antibody M2 was immobilized on a CM5 sensor chip using standard amine coupling procedure at a concentration of 100 μg/ml to a level of 10000 response units (RU). […] Flow cell 2 contained antibody only to control for non-specific binding of fragments to the antibody, and flow cells 3 and 4 contained antibody and captured Parkin. Untagged Parkin domain R0RBR was immobilized by amine coupling at a concentration of 100 μg/ml in 10 mM acetic acid pH 5.0 using the same running buffer as for anti-FLAG antibody immobilization. […]
(§1) The flow rate was 30μl/min. The time-dependent binding curves were monitored simultaneously. The surfaces were then regenerated after each binding experiment by washing the surfaces with an injection of running buffer. Kinetics and affinity experiments were repeated at least twice at two different test occasions.
(§2) Kinetic and affinity data were solvent corrected (fragments only), reference subtracted and blank subtracted using the Biacore T200 evaluation software V.1. Kinetic constants were determined by curve fitting using a 1∶1 binding model. Association and dissociation curves were fitted globally or locally. The rate of complex formation (1∶1 interaction) during fragment injection was calculated according to the equation (2): [drawing 2] (2) where R is the SPR signal in response units (RU), C is the concentration of analyte, Rmax is the maximum analyte binding capacity in RU, dR/dt is the rate of SPR signal change. To determine the association constant ka between fragment and protein, the early binding phase was used. The dissociation phase kd was measured using the rate of decline in RU after the injection stop, when free running buffer is flowing over the surface. Data were simultaneously fitted by the software and the dissociation constant KD calculated using equation (3). [drawing 3] (3) Ligand efficiency (LE, Δg) was calculated as the binding energy of ligand per atom (equation 4) [drawing 4] (4) where Nh is the number of heavy (i.e., non-hydrogen) atoms in the ligand.
The dissociation half-life (t1/2) was calculated by equation (5). [drawing 5] (5)

The target in experiment [2] is T2, FL-FLAG Parkin (Homo sapiens, UniProt O60260).
T2 construct: the entire coding region (residues 1–465) from NM_004562.1 was cloned into pFastBac; made in house; host or cells: Sf9 or Sf21 insect cells (baculovirus)
T2 sequence (O60260 1-465): T1 sequence (O60260 1-465)
Kind of experiment: STD NMR binding to FL-FLAG-Parkin. As to conditions: 4 µM FL Parkin, 0.5 mM DTT, 0.25 mM compound Z, signal at 2.6 ppm. As for the experimental part: All NMR experiments were conducted at 15°C on a Bruker Avance 700 MHz spectrometer equipped with a 5 mm TCI cryo-probe. 3 mm NMR tubes were used for reducing the protein consumption. […] The compound concentration was 0.25 mM. […] The Mnova 7.0 (Mestrelab Research) was used in data analysis.

In experiment [3] the target is T3, FL-FLAG-Parkin 56°C (thermal treated) (Homo sapiens, UniProt O60260).
T3 construct: the entire coding region (residues 1–465) from NM_004562.1 was cloned into pFastBac; made in house; host or cells: Sf9 or Sf21 insect cells (baculovirus)
T3 sequence (O60260 1-465): T1 sequence (O60260 1-465)
Nature of the experiment: SPR kinetics/affinity on thermal treated FL-FLAG Parkin captured by anti-FLAG antibody. The class given is binding. As for the experimental part: Kinetics and Affinity measurements were performed on a GE Healthcare Biacore T100 or T200 instrument. Anti-FLAG antibody M2 was immobilized on a CM5 sensor chip using standard amine coupling procedure at a concentration of 100 μg/ml to a level of 10000 response units (RU). […] The running buffer for both methods was 10 mM HEPES pH 7.4, 150 mM NaCl, 0.005% Tween-20, 4 mM reducing agent. […] Flow cell 2 contained antibody only to control for non-specific binding of fragments to the antibody, and flow cells 3 and 4 contained antibody and captured Parkin. Untagged Parkin domain R0RBR was immobilized by amine coupling at a concentration of 100 μg/ml in 10 mM acetic acid pH 5.0 using the same running buffer as for anti-FLAG antibody immobilization. The surface was then washed with 10 mM HEPES pH 7.4, 150 mM NaCl, 0.005% Tween-20, 4 mM reducing agent for at least one hour.
as §1
as §2, with “(2) where R is the SPR signal in response units (RU), C is the concentration of analyte, Rmax is the maximum analyte binding capacity in RU, dR/dt is the rate of SPR signal change. To determine the association constant ka between fragment and protein, the early binding phase was used.” left out, “[drawing 3]” left out, “(4) where Nh is the number of heavy (i.e., non-hydrogen) atoms in the ligand.” left out
The dissociation half-life (t1/2) was calculated by equation (5). […]
A general note: SPR reads the build-up and loss of mass on a sensor chip optically.

The target in experiment [4] is T2, FL-FLAG Parkin. Kind of experiment: S5a ubiquitination HTRF (TR-FRET) assay. Particulars: Parkin heated at 56°C in presence of reducing agent; DTT at optimal 5–10 mM. The class given is biochemical. As for the experimental part:
FL FLAG-Parkin (35 μM stock) was thermally treated by incubating at 56°C for 30 min. The thermally treated FL FLAG-Parkin stock was stored at −80 C. 5 μl of thermally treated or non-treated FLAG-Parkin diluted in assay buffer was added to wells of a 384-well non-binding plate. […] The reaction was allowed to proceed for 120 min at 30°C. 10 μl of stop-detection mix was added to a final concentration of 75 nM streptavidin XL665 conjugate, 12 mM EDTA in buffer containing 100 mM Na2HPO4 pH 7.0, 300 mM KF, and 0.1% BSA. The 20 μl reaction mixture was incubated for 60 min at room temperature. HTRF read using a LJL Analyst plate reader (Molecular Devices) at excitation 320 nm and emission 665 nm & 615 nm.
In general terms: In TR-FRET formats the signal depends on donor and acceptor labels being close together.

For a further experiment, the target named is T4, R0RBR Domain RT (Homo sapiens, UniProt O60260).
T4 construct: DNA encoding residues 141–465 of Parkin (NM_004562.1) were cloned into the Champion pET SUMO vector; SUMO (His-SUMO of the Champion pET SUMO vector) (N, cleaved yes); made in house; host or cells: E. coli BL21 DE3
T4 sequence (O60260 141-465): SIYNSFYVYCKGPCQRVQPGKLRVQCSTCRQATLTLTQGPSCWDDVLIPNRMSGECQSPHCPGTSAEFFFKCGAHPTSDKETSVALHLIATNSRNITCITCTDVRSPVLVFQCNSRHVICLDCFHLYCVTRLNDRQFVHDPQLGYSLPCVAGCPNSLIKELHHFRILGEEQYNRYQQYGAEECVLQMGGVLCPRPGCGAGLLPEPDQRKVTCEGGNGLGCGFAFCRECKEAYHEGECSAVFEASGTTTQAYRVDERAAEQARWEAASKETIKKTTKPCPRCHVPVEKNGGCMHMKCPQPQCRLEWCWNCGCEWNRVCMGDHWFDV
Nature of the experiment: SPR kinetics/affinity on amine-coupled Parkin R0RBR domain. It counts as binding. As to conditions: read-out: Affinities KD of protein ligands. As to the method:
Kinetics and Affinity measurements were performed on a GE Healthcare Biacore T100 or T200 instrument. Anti-FLAG antibody M2 was immobilized on a CM5 sensor chip using standard amine coupling procedure at a concentration of 100 μg/ml to a level of 10000 response units (RU). Monomeric non-thermal treated FL-Parkin or thermal treated FL-Parkin was captured in 10 mM acetic acid pH 4.5 to levels of up to 16000 RU. The running buffer for both methods was 10 mM HEPES pH 7.4, 150 mM NaCl, 0.005% Tween-20, 4 mM reducing agent. Typically, the 4 flow cells of the sensor chips were used as follows: flow cell 1 served as a reference and was activated and deactivated. […]
To test binding of reducing agents in the absence of small molecules, the reducing agents were diluted and injected in buffer without reducing agents for 180 sec and a dissociation phase of 600 sec. […] The time-dependent binding curves were monitored simultaneously. […]
Kinetic and affinity data were solvent corrected (fragments only), reference subtracted and blank subtracted using the Biacore T200 evaluation software V.1. Kinetic constants were determined by curve fitting using a 1∶1 binding model. […] The rate of complex formation (1∶1 interaction) during fragment injection was calculated according to the equation (2): [drawing 2] […] Data were simultaneously fitted by the software and the dissociation constant KD calculated using equation (3). […]

Setting [5] is: SPR, 50 mM HEPES pH 8.8, 0.005% Tween-20, 0.01% PF-127, no other reducing agent.

In the case of `O[C@@H](CS)[C@@H](O)CS` (racemic) [DTT, Dithiothreitol], in experiment [1] (setting [5]), the pKd was 5.85 and the “affinity (KD) of reducing agent” value is “low micro-molar affinity”. In addition, in experiment [1] (SPR, same run as the KD of DTT), the Rmax is 34 RU and the “binding activity % Rmax” value was determined as 47 % Rmax. In addition, the dissociation half-life in experiment [1] (calculated from the dissociation rate kd) was 28.95 min. Also, the “direct binding of reducing agent by SPR” value in experiment [1] was “showed binding”. For the same compound, the “DTT binding in STD spectrum” value at FL-FLAG Parkin [2] was “binding was evident”. Moreover, the “direct binding of reducing agent by SPR” value in experiment [3] was “showed binding”.
Take `OCCS` [BME, β-mercaptoethanol]: the “direct binding of reducing agent by SPR” value in experiment [1] and in experiment [3] was “did not exhibit any binding” throughout. The “improvement of Parkin S5a ubiquitination activity” value at FL-FLAG Parkin [4] is on record as “up to 2.5 fold”.
`O=C(O)CCP(CCC(=O)O)CCC(=O)O` [TCEP]: the “direct binding of reducing agent by SPR” value in experiment [1] and in experiment [3] was “did not exhibit any binding” in each case. Also, on FL-FLAG Parkin [4], the “improvement of Parkin S5a ubiquitination activity” value is “up to 2.5 fold”.
In the case of “UbcH7: Ubiquitin conjugating enzyme E2, non-tagged, purified in house”, in the experiment with R0RBR Domain RT, the pKd was 5.15. Further, in experiment [1] (SPR, protein ligand), the “dissociation at a fast rate (kd), time” value is 30 s.
